Laboratory results taken from patent US5231089A, “Method of improving oral bioavailability of carbamazepine” (priority 1992, dated 1993).
Read-outs that look alike come from different tables or passages of the source.

How the values were obtained:
[1] = dog, in vivo
[2] = cited from earlier work; for solubilization in water: 15 mg/mL hydroxypropyl-β-cyclodextrin (Uekama et al)
[3] = cited from earlier work; for Absolute bioavailability: 100 mg 2% oral suspension vs intravenous infusion (Gerardin et al)
[4] = tested on: generalized tonic-clonic seizures; details: human, in vivo; cited from earlier work
[5] = cited from earlier work
[6] = tested on: maximal electroshock seizure (MES) test models; details: in vivo; cited from earlier work
[7] = with water-soluble β-cyclodextrin epichlorohydrin polymer; cited from earlier work
[8] = in vivo; cited from earlier work
[9] = healthy human subjects (Neuvonen et al)

Question: With `NC(=O)N1c2ccccc2C=Cc2ccccc21` [TEGRETOL] as the compound, how does the “coefficient of variation around the AUC” value [1] read?
Answer: 78%

Question: What about the “coefficient of variation of Cmax” value [1] of the same compound?
Answer: 71%

Question: With `NC(=O)N1c2ccccc2C=Cc2ccccc21` [carbamazepine, 5H-dibenz[b,f]azepine-5-carboxamide] as the compound, how does the “water solubility of carbamazepine” value ([2]; no cyclodextrin) read?
Answer: extremely poor water solubility

Question: What about the “total bioavailability (area under the curve)” value ([3]; Australian tablets 1977 vs since 1980 (Eadie et al)) of the same compound?
Answer: no significant difference in total bioavailability

Question: What about the “oral absorption, adequacy” value ([3]; Goodman and Gilman) of the same compound?
Answer: adequate

Question: What about the “plasma levels, 200 or 400 mg tablets” value ([3]; epileptic patients (Monaco et al)) of the same compound?
Answer: no difference in plasma levels

Question: And the “absorption, rectal versus oral” value [3, 9]?
Answer: significantly slower

Question: What about the “total bioavailability, rectal versus oral” value [3, 9] of the same compound?
Answer: similar

Question: What about the “bioavailability from the oral suspension versus intravenous” value ([3]; healthy male volunteers (Gerardin et al)) of the same compound?
Answer: equivalent

Question: What about the oral absorption ([3]; rate/regularity, in words) of the same compound?
Answer: slow and somewhat erratic

Question: What about the Absolute bioavailability ([3]; subject 1) of the same compound?
Answer: 102.3%

Question: What about the Absolute bioavailability ([3]; subject 2) of the same compound?
Answer: 100.1%

Question: And the “efficacy in generalized tonic-clonic seizures (grand mal)” value [4]?
Answer: proven efficacy

Question: What about the “gingival hypertropy, hirsutism, acne” value ([5]; effects associated with phenytoin) of the same compound?
Answer: does not precipitate

Question: What about the Therapeutic plasma levels ([5]; human, in vivo) of the same compound?
Answer: 4 to 10 µg/mL

Question: And the “level at which diplopia, dizziness, drowsiness and ataxia occur” value ([5]; human, in vivo)?
Answer: above 6 μg/mL

Question: What about the sedation ([5]; human, in vivo) of the same compound?
Answer: less sedating

Question: What about the “serum level at which nystagmus may occur” value ([5]; human, in vivo) of the same compound?
Answer: below the therapeutic range

Question: What about the “effectiveness in MES test models” value [6] of the same compound?
Answer: effective

Question: Which solubilization in water [2] does the source give for `CCCCCCNC(=O)n1cc(F)c(=O)[nH]c1=O` [carmofur] here?
Answer: improved solubilization

Question: For `C[C@H]1O[C@@H](O[C@H]2[C@@H](O)C[C@H](O[C@H]3[C@@H](O)C[C@H](O[C@H]4CC[C@@]5(C)[C@H](CC[C@@H]6[C@@H]5C[C@@H](O)[C@]5(C)[C@@H](C7=CC(=O)OC7)CC[C@]65O)C4)O[C@@H]3C)O[C@@H]2C)C[C@H](O)[C@@H]1O` [digoxin], which solubilization in water [2] is on record?
Answer: improved solubilization

Question: For `CC(C(=O)O)c1ccc(-c2ccccc2)c(F)c1` (stereo not shown) [flurbiprofen], which solubilization in water [2] is on record?
Answer: improved solubilization

Question: With `COc1ccc2c(c1)c(CC(=O)O)c(C)n2C(=O)c1ccc(Cl)cc1` [indomethacin] as the compound, how does the solubilization in water [2] read?
Answer: improved solubilization

Question: What does the source list for `O=C1NC(=O)C(c2ccccc2)(c2ccccc2)N1` [phenytoin]?
Answer: solubilization in water [2]: improved solubilization; dissolution and absorption [7]: Improvements

Question: Which solubilization in water [2] does the source give for `C[C@]12C=CC(=O)C=C1CC[C@@H]1[C@@H]2[C@@H](O)C[C@@]2(C)[C@H]1CC[C@]2(O)C(=O)CO` [prednisolone] here?
Answer: improved solubilization

Question: Which solubilization in water [2] does the source give for `CC(=O)[C@H]1CC[C@H]2[C@@H]3CCC4=CC(=O)CC[C@]4(C)[C@H]3CC[C@]12C` [progesterone] here?
Answer: improved solubilization

Question: For `C[C@]12CC[C@H]3[C@@H](CCC4=CC(=O)CC[C@@]43C)[C@@H]1CC[C@@H]2O` [testosterone], which solubilization in water [2] is on record?
Answer: improved solubilization

Question: For `OC[C@H]1O[C@@H]2O[C@H]3[C@H](O)[C@@H](O)[C@@H](O[C@H]4[C@H](O)[C@@H](O)[C@@H](O[C@H]5[C@H](O)[C@@H](O)[C@@H](O[C@H]6[C@H](O)[C@@H](O)[C@@H](O[C@H]7[C@H](O)[C@@H](O)[C@@H](O[C@H]8[C@H](O)[C@@H](O)[C@@H](O[C@H]1[C@H](O)[C@H]2O)O[C@@H]8CO)O[C@@H]7CO)O[C@@H]6CO)O[C@@H]5CO)O[C@@H]4CO)O[C@@H]3CO` [β-cyclodextrin], which aqueous solubility ([2]; 25° C.) is on record?
Answer: about 1.8 % w/v

Question: What about the nephrotoxicity [8] of the same compound?
Answer: nephrotoxicity

Question: Which “effect on the water solubility of carbamazepine” value ([2]; Brewster et al) does the source give for `OC[C@H]1O[C@@H]2O[C@H]3[C@H](O)[C@@H](O)[C@@H](O[C@H]4[C@H](O)[C@@H](O)[C@@H](O[C@H]5[C@H](O)[C@@H](O)[C@@H](O[C@H]6[C@H](O)[C@@H](O)[C@@H](O[C@H]7[C@H](O)[C@@H](O)[C@@H](O[C@H]8[C@H](O)[C@@H](O)[C@@H](O[C@H]9[C@H](O)[C@@H](O)[C@@H](O[C@H]1[C@H](O)[C@H]2O)O[C@@H]9CO)O[C@@H]8CO)O[C@@H]7CO)O[C@@H]6CO)O[C@@H]5CO)O[C@@H]4CO)O[C@@H]3CO` [γ-cyclodextrin] here?
Answer: significantly enhance
